The source of these data is patent US7803811B2, “1,2,3-substituted indolizine derivatives, inhibitors of FGFs, method for preparing them and pharmaceutical compositions containing them” (Sanofi-Aventis, priority 2002, dated 2010).

Molecules are shown by their SMILES.

`COc1cc(C(=O)c2c(C)c(OCCO)c3ccccn23)ccc1[N+](=O)[O-]` [Example 80, [1-(2-Hydroxyethoxy)-2-methylindolizin-3-yl](3-methoxy-4-nitrophenyl)methanone] had a melting point of 142 °C.

What is called melting point is the temperature of the solid-liquid transition.
